# Target: T1, human PAH with the R408W mutation (Homo sapiens, UniProt P00439, R408W)
# T1 construct: expressed in transfected cells
# T1 sequence (P00439 1-452 R408W): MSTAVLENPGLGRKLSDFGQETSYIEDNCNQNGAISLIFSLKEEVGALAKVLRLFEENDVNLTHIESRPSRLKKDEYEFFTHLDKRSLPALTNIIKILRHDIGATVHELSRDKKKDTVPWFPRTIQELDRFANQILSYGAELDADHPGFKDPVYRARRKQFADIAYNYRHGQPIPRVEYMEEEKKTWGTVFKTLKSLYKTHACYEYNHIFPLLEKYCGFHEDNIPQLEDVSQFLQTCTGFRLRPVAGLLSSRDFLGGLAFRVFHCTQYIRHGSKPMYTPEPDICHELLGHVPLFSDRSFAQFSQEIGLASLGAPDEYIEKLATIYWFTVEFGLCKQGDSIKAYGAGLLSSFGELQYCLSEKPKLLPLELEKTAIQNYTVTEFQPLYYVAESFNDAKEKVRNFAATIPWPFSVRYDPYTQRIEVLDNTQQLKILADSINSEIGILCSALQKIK
# Test: Cell Based Phenylalanine Flux Assay;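 note: after compound treatment, cells received sepiapterin plus isotope-labelled Phenylalanine for 4 hours, then labelled Tyrosine in the medium was quantified, 10-point 2-fold dilution series run in duplicate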
# Conditions: A375 cells expressing human R408W PAH; 24 hrs compound incubation; 13C-Tyrosine by LC-MS; average where tested multiple times; read-out: AC50
row,Compound,AC50 [nM]
1,"CC(C)(C)c1nnc(C(=O)N2CCc3[nH]cnc3[C@H]2c2cc3c(C(F)(F)F)cccn3n2)o1 [Example 948, (S)-(5-(tert-butyl)-1,3,4-oxadiazol-2-yl)(4-(4-(trifluoromethyl)pyrazolo[1,5-a]pyridin-2-yl)-6,7-dihydro-1H-imidazo[4,5-c]pyridin-5(4H)-yl)methanone]",< 500
2,"CC(C)(C)c1nnc(C(=O)N2CCc3[nH]cnc3[C@@H]2c2cc3c(C(F)(F)F)cccn3n2)o1 [Example 949, (R)-(5-(tert-butyl)-1,3,4-oxadiazol-2-yl)(4-(4-(trifluoromethyl)pyrazolo[1,5-a]pyridin-2-yl)-6,7-dihydro-1H-imidazo[4,5-c]pyridin-5(4H)-yl)methanone]",1000 to 5000
3,"CC(C)(F)c1nnc(C(=O)N2CCc3[nH]cnc3[C@H]2c2cc3c(C(F)(F)F)cccn3n2)o1 [Example 950, (S)-(5-(2-fluoropropan-2-yl)-1,3,4-oxadiazol-2-yl)(4-(4-(trifluoromethyl)pyrazolo[1,5-a]pyridin-2-yl)-6,7-dihydro-1H-imidazo[4,5-c]pyridin-5(4H)-yl)methanone]",< 500
4,"CC(C)(F)c1nnc(C(=O)N2CCc3[nH]cnc3[C@@H]2c2cc3c(C(F)(F)F)cccn3n2)o1 [Example 951, (R)-(5-(2-fluoropropan-2-yl)-1,3,4-oxadiazol-2-yl)(4-(4-(trifluoromethyl)pyrazolo[1,5-a]pyridin-2-yl)-6,7-dihydro-1H-imidazo[4,5-c]pyridin-5(4H)-yl)methanone]",1000 to 5000
5,"Cn1cc(-c2nnc(C(=O)N3CCc4[nH]cnc4[C@H]3c3cc4cccc(C(F)(F)F)n4n3)o2)cn1 [Example 952, (S)-(5-(1-methyl-1H-pyrazol-4-yl)-1,3,4-oxadiazol-2-yl)(4-(7-(trifluoromethyl)pyrazolo[1,5-a]pyridin-2-yl)-6,7-dihydro-1H-imidazo[4,5-c]pyridin-5(4H)-yl)methanone]",500 to 1000
6,"Cn1cc(-c2nnc(C(=O)N3CCc4[nH]cnc4[C@@H]3c3cc4cccc(C(F)(F)F)n4n3)o2)cn1 [Example 953, (R)-(5-(1-methyl-1H-pyrazol-4-yl)-1,3,4-oxadiazol-2-yl)(4-(7-(trifluoromethyl)pyrazolo[1,5-a]pyridin-2-yl)-6,7-dihydro-1H-imidazo[4,5-c]pyridin-5(4H)-yl)methanone]",1000 to 5000
7,"Cc1c(-c2nnc(C(=O)N3CCc4[nH]cnc4[C@H]3c3cc4c(F)cccn4n3)o2)cnn1C [Example 954, (S)-(5-(1,5-dimethyl-1H-pyrazol-4-yl)-1,3,4-oxadiazol-2-yl)(4-(4-fluoropyrazolo[1,5-a]pyridin-2-yl)-6,7-dihydro-1H-imidazo[4,5-c]pyridin-5(4H)-yl)methanone]",< 500
8,"Cc1c(-c2nnc(C(=O)N3CCc4[nH]cnc4[C@@H]3c3cc4c(F)cccn4n3)o2)cnn1C [Example 955, (R)-(5-(1,5-dimethyl-1H-pyrazol-4-yl)-1,3,4-oxadiazol-2-yl)(4-(4-fluoropyrazolo[1,5-a]pyridin-2-yl)-6,7-dihydro-1H-imidazo[4,5-c]pyridin-5(4H)-yl)methanone]",> 5000
9,"Cc1cccn2nc([C@H]3c4nc[nH]c4CCN3C(=O)c3nnc(-c4cnccn4)o3)cc12 [Example 956, (R)-(4-(4-methylpyrazolo[1,5-a]pyridin-2-yl)-6,7-dihydro-1H-imidazo[4,5-c]pyridin-5(4H)-yl)(5-(pyrazin-2-yl)-1,3,4-oxadiazol-2-yl)methanone]",> 5000
10,"Cc1cccn2nc([C@@H]3c4nc[nH]c4CCN3C(=O)c3nnc(-c4cnccn4)o3)cc12 [Example 957, (S)-(4-(4-methylpyrazolo[1,5-a]pyridin-2-yl)-6,7-dihydro-1H-imidazo[4,5-c]pyridin-5(4H)-yl)(5-(pyrazin-2-yl)-1,3,4-oxadiazol-2-yl)methanone]",< 500
11,"O=C(c1ocnc1C(F)F)N1CCc2[nH]cnc2[C@@H]1c1cc2cccc(Cl)n2n1 [Example 959, (R)-(4-(7-chloropyrazolo[1,5-a]pyridin-2-yl)-6,7-dihydro-1H-imidazo[4,5-c]pyridin-5(4H)-yl)(4-(difluoromethyl)oxazol-5-yl)methanone]",1000 to 5000
12,"CC(C)(O)c1nc(C(F)F)c(C(=O)N2CCc3[nH]cnc3[C@H]2c2cc3cccc(Cl)n3n2)o1 [Example 960, (S)-(4-(7-chloropyrazolo[1,5-a]pyridin-2-yl)-6,7-dihydro-1H-imidazo[4,5-c]pyridin-5(4H)-yl)(4-(difluoromethyl)-2-(2-hydroxypropan-2-yl)oxazol-5-yl)methanone]",500 to 1000
13,"CC(C)(O)c1nc(C(F)F)c(C(=O)N2CCc3[nH]cnc3[C@@H]2c2cc3cccc(Cl)n3n2)o1 [Example 961, (R)-(4-(7-chloropyrazolo[1,5-a]pyridin-2-yl)-6,7-dihydro-1H-imidazo[4,5-c]pyridin-5(4H)-yl)(4-(difluoromethyl)-2-(2-hydroxypropan-2-yl)oxazol-5-yl)methanone]",1000 to 5000
14,"O=C(c1nnc(-c2cnccn2)o1)N1CCc2[nH]cnc2[C@@H]1c1cc2c(F)cccn2n1 [Example 963, (R)-(4-(4-fluoropyrazolo[1,5-a]pyridin-2-yl)-6,7-dihydro-1H-imidazo[4,5-c]pyridin-5(4H)-yl)(5-(pyrazin-2-yl)-1,3,4-oxadiazol-2-yl)methanone]",> 5000
15,"O=C(c1nnc(-c2ccn(C(F)F)n2)o1)N1CCc2[nH]cnc2[C@H]1c1cc2cccc(Cl)n2n1 [Example 964, (S)-(4-(7-chloropyrazolo[1,5-a]pyridin-2-yl)-6,7-dihydro-1H-imidazo[4,5-c]pyridin-5(4H)-yl)(5-(1-(difluoromethyl)-1H-pyrazol-3-yl)-1,3,4-oxadiazol-2-yl)methanone]",< 500
16,"O=C(c1nnc(-c2ccn(C(F)F)n2)o1)N1CCc2[nH]cnc2[C@@H]1c1cc2cccc(Cl)n2n1 [Example 965, (R)-(4-(7-chloropyrazolo[1,5-a]pyridin-2-yl)-6,7-dihydro-1H-imidazo[4,5-c]pyridin-5(4H)-yl)(5-(1-(difluoromethyl)-1H-pyrazol-3-yl)-1,3,4-oxadiazol-2-yl)methanone]",> 5000
17,"Cc1ccc2cc([C@@H]3c4nc[nH]c4CCN3C(=O)c3nnc(C4CC4)o3)nn2c1 [Example 966, (S)-(5-cyclopropyl-1,3,4-oxadiazol-2-yl)(4-(6-methylpyrazolo[1,5-a]pyridin-2-yl)-6,7-dihydro-1H-imidazo[4,5-c]pyridin-5(4H)-yl)methanone]",500 to 1000
18,"Cc1ccc2cc([C@H]3c4nc[nH]c4CCN3C(=O)c3nnc(C4CC4)o3)nn2c1 [Example 967, (R)-(5-cyclopropyl-1,3,4-oxadiazol-2-yl)(4-(6-methylpyrazolo[1,5-a]pyridin-2-yl)-6,7-dihydro-1H-imidazo[4,5-c]pyridin-5(4H)-yl)methanone]",> 5000
19,"CC(C)(F)c1nnc(C(=O)N2CCc3[nH]cnc3[C@@H]2c2cc3cccc(Cl)n3n2)o1 [Example 968, (R)-(4-(7-chloropyrazolo[1,5-a]pyridin-2-yl)-6,7-dihydro-1H-imidazo[4,5-c]pyridin-5(4H)-yl)(5-(2-fluoropropan-2-yl)-1,3,4-oxadiazol-2-yl)methanone]",1000 to 5000
20,"COc1cccn2nc([C@H]3c4nc[nH]c4CCN3C(=O)c3nnc(C(C)(C)F)o3)cc12 [Example 970, (R)-(5-(2-fluoropropan-2-yl)-1,3,4-oxadiazol-2-yl)(4-(4-methoxypyrazolo[1,5-a]pyridin-2-yl)-6,7-dihydro-1H-imidazo[4,5-c]pyridin-5(4H)-yl)methanone]",> 5000
21,"COc1cccn2nc([C@@H]3c4nc[nH]c4CCN3C(=O)c3nnc(C(C)(C)F)o3)cc12 [Example 971, (S)-(5-(2-fluoropropan-2-yl)-1,3,4-oxadiazol-2-yl)(4-(4-methoxypyrazolo[1,5-a]pyridin-2-yl)-6,7-dihydro-1H-imidazo[4,5-c]pyridin-5(4H)-yl)methanone]",500 to 1000
22,"Cc1c(-c2nnc(C(=O)N3CCc4[nH]cnc4[C@H]3c3cc4ccccn4n3)o2)cnn1C [Example 972, (S)-(5-(1,5-dimethyl-1H-pyrazol-4-yl)-1,3,4-oxadiazol-2-yl)(4-(pyrazolo[1,5-a]pyridin-2-yl)-6,7-dihydro-1H-imidazo[4,5-c)pyridin-5(4H)-yl)methanone]",< 500
23,"Cc1c(-c2nnc(C(=O)N3CCc4[nH]cnc4[C@@H]3c3cc4ccccn4n3)o2)cnn1C [Example 973, (R)-(5-(1,5-dimethyl-1H-pyrazol-4-yl)-1,3,4-oxadiazol-2-yl)(4-(pyrazolo[1,5-a]pyridin-2-yl)-6,7-dihydro-1H-imidazo[4,5-c]pyridin-5(4H)-yl)methanone]",> 5000
24,"O=C(c1nnc(-c2ccccn2)o1)N1CCc2[nH]cnc2[C@@H]1c1cc2cccc(F)n2n1 [Example 974, (R)-(4-(7-fluoropyrazolo[1,5-a]pyridin-2-yl)-6,7-dihydro-1H-imidazo[4,5-c]pyridin-5(4H)-yl)(5-(pyridin-2-yl)-1,3,4-oxadiazol-2-yl)methanone]",1000 to 5000
25,"O=C(c1nnc(-c2ccccn2)o1)N1CCc2[nH]cnc2[C@H]1c1cc2cccc(F)n2n1 [Example 975, (S)-(4-(7-fluoropyrazolo[1,5-a]pyridin-2-yl)-6,7-dihydro-1H-imidazo[4,5-c]pyridin-5(4H)-yl)(5-(pyridin-2-yl)-1,3,4-oxadiazol-2-yl)methanone]",< 500
26,"Cn1ccc(-c2nnc(C(=O)N3CCc4[nH]cnc4[C@H]3c3cc4cccc(Cl)n4n3)o2)n1 [Example 976, (S)-(4-(7-chloropyrazolo[1,5-a]pyridin-2-yl)-6,7-dihydro-1H-imidazo[4,5-c)pyridin-5(4H)-yl)(5-(1-methyl-1H-pyrazol-3-yl)-1,3,4-oxadiazol-2-yl)methanone]",< 500

# Reference: patent US20230365592A1 (Agios Pharmaceuticals, Inc., priority 2022, published 2023)
